Measurements as given in ChEMBL document CHEMBL4364344, “Design, synthesis and evaluation of activity and pharmacokinetic profile of new derivatives of xanthone and piperazine in the central nervous system” (Bioorg Med Chem Lett, 2019).

What was measured:
[1] = target: Serotonin 2 (5-HT2) receptor (Rattus norvegicus) (UniProt P30994+P08909+P14842); assay: Displacement of [3H]ketanserin from 5-HT2 receptor in Wistar rat brain cortex membrane at 10 uM after 40 mins by scintillation counting analysis relative to control; format: cell membranes
Mus musculus = assay: Anxiolytic activity in albino Swiss CD-1 mouse assessed as increase in number of punished crossings at 10 mg/kg, ip administered 30 mins prior to test by four-plate test relative to control; format: functional
[2] = AUC (0 to t) in CD-1 mouse plasma at 5 mg/kg, ip measured up to 480 mins by LC/ESI-MS/MS analysis; format: ADME, organism-based; set-up: dose 5 mg/kg, time < 8 hr, route intraperitoneal
[3] = Terminal half life in CD-1 mouse plasma at 5 mg/kg, ip measured up to 480 mins by LC/ESI-MS/MS analysis; format: ADME, organism-based; conditions: read-out: beta t1/2
[4] = Cmax in CD-1 mouse plasma at 5 mg/kg, ip measured up to 480 mins by LC/ESI-MS/MS analysis; format: ADME, organism-based; set-up: dose 5 mg/kg, route intraperitoneal
[5] = MRT in CD-1 mouse brain at 5 mg/kg, ip measured up to 480 mins by LC/ESI-MS/MS analysis; format: ADME, organism-based
[6] = Tmax in CD-1 mouse brain at 5 mg/kg, ip measured up to 480 mins by LC/ESI-MS/MS analysis; format: ADME, organism-based
[7] = Mutagenicity in Salmonella typhimurium TA100 at 50 ug/plate preincubated for 20 mins followed by addition of top agar and measured after 48 hrs by Ames test; format: toxicity; conditions: salmonella enterica subsp. enterica serovar typhimurium
[8] = Mutagenicity in Salmonella typhimurium TA102 at 5 ug/plate preincubated for 20 mins followed by addition of top agar and measured after 48 hrs by Ames test; format: toxicity; conditions: salmonella enterica subsp. enterica serovar typhimurium
[9] = Mutagenicity in Salmonella typhimurium TA102 at 250 ug/plate preincubated for 20 mins followed by addition of top agar and measured after 48 hrs by Ames test; format: toxicity; conditions: salmonella enterica subsp. enterica serovar typhimurium
[10] = target: Adenosine receptor A3 (Homo sapiens) (UniProt P0DMS8); assay: Displacement of [125I]AB-MECA from recombinant human A3 receptor at 10 uM after 120 mins by radiometric scintillation analysis relative to control
[11] = target: Beta-1 adrenergic receptor (Homo sapiens) (UniProt P08588); assay: Displacement of [3H](-)CGP 12177 from recombinant human beta1 receptor at 10 uM after 60 mins by radiometric scintillation analysis relative to control
Rattus norvegicus = species: Rattus norvegicus; assay: Displacement of [3H]-Flumazenil from GABAA/BZD receptor in rat cortical membranes incubated for 60 mins by radioligand binding assay relative to control; format: cell membranes
[12] = target: B2 bradykinin receptor (Homo sapiens) (UniProt P30411); assay: Displacement of [3H]bradykinin from recombinant human B2 receptor at 10 uM after 60 mins by radiometric scintillation analysis relative to control
[13] = target: Cannabinoid receptor 1 (Homo sapiens) (UniProt P21554); assay: Displacement of [3H]CP 55940 from recombinant human CB1 receptor at 10 uM by radiometric scintillation analysis relative to control
[14] = target: D(2) dopamine receptor (Homo sapiens) (UniProt P14416); assay: Displacement of [3H]methyl-spiperone from recombinant human D2S dopamine receptor at 10 uM after 60 mins by radiometric scintillation analysis relative to control
[15] = target: Endothelin-1 receptor (Homo sapiens) (UniProt P25101); assay: Displacement of [125I]endothelin-1 from recombinant human ETA receptor at 10 uM after 120 mins by radiometric scintillation analysis relative to control
[16] = target: Galanin receptor type 2 (Homo sapiens) (UniProt O43603); assay: Displacement of [125I]galanin from recombinant human GAL2 receptor at 10 uM after 120 mins by radiometric scintillation analysis relative to control
[17] = target: Melanocortin receptor 4 (Homo sapiens) (UniProt P32245); assay: Displacement of [125I]NDP-alpha -MSH from recombinant human MC4 receptor at 10 uM after 120 mins by radiometric scintillation counting analysis relative to control
[18] = target: Melatonin receptor type 1A (Homo sapiens) (UniProt P48039); assay: Displacement of [125I]2-iodomelatonin from recombinant human MT1 receptor at 10 uM after 240 mins by radiometric scintillation counting analysis relative to control
[19] = target: Muscarinic acetylcholine receptor M1 (Homo sapiens) (UniProt P11229); assay: Displacement of [3H]pirenzepine from recombinant human M1 receptor at 10 uM after 60 mins by radiometric scintillation analysis relative to control
[20] = target: Neurotensin receptor type 1 (Homo sapiens) (UniProt P30989); assay: Displacement of [125I]Tyr3-neurotensin from human NSTR1 receptor at 10 uM after 60 mins by radiometric scintillation analysis relative to control
[21] = target: Delta-type opioid receptor (Homo sapiens) (UniProt P41143); assay: Displacement of [3H]DADLE from recombinant human DOR receptor at 10 uM after 60 mins by radiometric scintillation analysis relative to control
[22] = target: Kappa-type opioid receptor (Homo sapiens) (UniProt P41145); assay: Displacement of [3H]U69593 from human KOR receptor at 10 uM after 60 mins by radiometric scintillation analysis relative to control
[23] = target: Prostaglandin E2 receptor EP4 subtype (Homo sapiens) (UniProt P35408); assay: Displacement of [3H]PGE2 from recombinant human EP4 receptor at 10 uM after 120 mins by radiometric scintillation analysis relative to control
[24] = target: 5-hydroxytryptamine receptor 1A (Homo sapiens) (UniProt P08908); assay: Displacement of [3H]8-OH-DPAT from recombinant human 5-HT1A receptor at 10 uM after 60 mins by radiometric scintillation analysis relative to control
[25] = target: T1, 5-hydroxytryptamine receptor 2B (Homo sapiens, UniProt P41595); assay: Displacement of [125I](+/-)DOI from recombinant human 5-HT2B receptor at 10 uM after 60 mins by radiometric scintillation analysis relative to control
[26] = target: 5-hydroxytryptamine receptor 6 (Homo sapiens) (UniProt P50406); assay: Displacement of [3H]LSD from recombinant human 5-HT6 receptor at 10 uM after 120 mins by radiometric scintillation analysis relative to control
[27] = target: Somatostatin receptor type 4 (Mus musculus) (UniProt P49660); assay: Displacement of [125I]Tyr11-somatostatin-14 from mouse SST4 receptor at 10 uM after 120 mins by radiometric scintillation analysis relative to control
[28] = target: Small conductance calcium-activated potassium channel (Rattus norvegicus) (UniProt P70604+P70606+P70605); assay: Displacement of [125I]apamin from rat brain SKCa at 10 uM after 60 mins by radiometric scintillation analysis relative to control
[29] = target: Sodium-dependent dopamine transporter (Homo sapiens) (UniProt Q01959); assay: Displacement of [3H]BTCP recombinant human dopamine transporter at 10 uM after 120 mins by radiometric scintillation analysis relative to control
[30] = target: T1, 5-hydroxytryptamine receptor 2B; assay: Displacement of [125I](+/-)DOI from recombinant human 5-HT2B receptor after 60 mins by radiometric scintillation analysis
[31] = Displacement of [3H]batrachotoxinin from rat brain sodium channel site 2 after 60 mins by scintillation counting analysis

T1 sequence (P41595 whole entry): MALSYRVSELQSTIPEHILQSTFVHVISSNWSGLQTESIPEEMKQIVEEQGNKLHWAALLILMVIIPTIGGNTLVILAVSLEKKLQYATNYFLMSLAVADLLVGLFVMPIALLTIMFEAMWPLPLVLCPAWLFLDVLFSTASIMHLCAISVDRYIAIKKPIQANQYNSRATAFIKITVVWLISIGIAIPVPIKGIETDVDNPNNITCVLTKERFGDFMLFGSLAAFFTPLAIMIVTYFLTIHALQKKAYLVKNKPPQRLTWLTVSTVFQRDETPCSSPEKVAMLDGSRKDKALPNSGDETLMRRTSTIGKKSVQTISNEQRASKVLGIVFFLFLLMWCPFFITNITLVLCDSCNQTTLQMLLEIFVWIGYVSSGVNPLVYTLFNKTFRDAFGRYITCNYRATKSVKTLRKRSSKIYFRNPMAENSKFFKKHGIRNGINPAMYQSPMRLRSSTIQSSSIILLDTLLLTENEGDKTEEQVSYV
Sequence of 5-hydroxytryptamine receptor 6 (Homo sapiens) (P50406 whole entry): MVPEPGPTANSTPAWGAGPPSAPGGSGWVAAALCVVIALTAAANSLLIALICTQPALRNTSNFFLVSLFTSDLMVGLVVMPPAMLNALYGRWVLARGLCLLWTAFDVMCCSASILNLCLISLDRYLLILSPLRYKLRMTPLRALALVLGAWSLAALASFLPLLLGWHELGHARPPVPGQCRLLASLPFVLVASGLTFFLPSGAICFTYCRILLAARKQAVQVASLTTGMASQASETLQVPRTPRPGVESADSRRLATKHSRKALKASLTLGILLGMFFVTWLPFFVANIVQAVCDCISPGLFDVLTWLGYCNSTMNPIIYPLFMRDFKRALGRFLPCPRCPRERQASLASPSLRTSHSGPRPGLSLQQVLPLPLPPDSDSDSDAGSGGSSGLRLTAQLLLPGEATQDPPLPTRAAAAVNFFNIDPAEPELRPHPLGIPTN
Sequence of Adenosine receptor A3 (Homo sapiens) (P0DMS8 whole entry): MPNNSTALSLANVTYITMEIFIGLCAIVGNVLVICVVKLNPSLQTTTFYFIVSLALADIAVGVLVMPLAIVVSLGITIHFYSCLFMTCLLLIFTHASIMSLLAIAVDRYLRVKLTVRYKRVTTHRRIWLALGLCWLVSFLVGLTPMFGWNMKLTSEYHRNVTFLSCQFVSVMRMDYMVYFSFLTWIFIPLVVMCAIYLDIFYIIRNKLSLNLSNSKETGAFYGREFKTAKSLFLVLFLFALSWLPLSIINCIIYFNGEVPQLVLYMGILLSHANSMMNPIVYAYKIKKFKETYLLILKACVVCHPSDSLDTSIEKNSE
Sequence of D(2) dopamine receptor (Homo sapiens) (P14416 whole entry): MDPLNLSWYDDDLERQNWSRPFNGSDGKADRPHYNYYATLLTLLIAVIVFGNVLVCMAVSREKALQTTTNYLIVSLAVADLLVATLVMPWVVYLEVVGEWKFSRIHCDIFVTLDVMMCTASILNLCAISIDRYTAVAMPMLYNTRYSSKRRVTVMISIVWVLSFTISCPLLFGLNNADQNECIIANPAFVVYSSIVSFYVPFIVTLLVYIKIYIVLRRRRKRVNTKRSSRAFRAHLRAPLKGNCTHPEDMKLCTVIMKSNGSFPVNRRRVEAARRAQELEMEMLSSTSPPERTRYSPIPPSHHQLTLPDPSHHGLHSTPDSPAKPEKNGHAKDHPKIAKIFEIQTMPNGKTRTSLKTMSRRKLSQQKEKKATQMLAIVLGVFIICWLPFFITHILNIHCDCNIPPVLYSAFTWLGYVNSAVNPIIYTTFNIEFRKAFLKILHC
Sequence of Prostaglandin E2 receptor EP4 subtype (Homo sapiens) (P35408 whole entry): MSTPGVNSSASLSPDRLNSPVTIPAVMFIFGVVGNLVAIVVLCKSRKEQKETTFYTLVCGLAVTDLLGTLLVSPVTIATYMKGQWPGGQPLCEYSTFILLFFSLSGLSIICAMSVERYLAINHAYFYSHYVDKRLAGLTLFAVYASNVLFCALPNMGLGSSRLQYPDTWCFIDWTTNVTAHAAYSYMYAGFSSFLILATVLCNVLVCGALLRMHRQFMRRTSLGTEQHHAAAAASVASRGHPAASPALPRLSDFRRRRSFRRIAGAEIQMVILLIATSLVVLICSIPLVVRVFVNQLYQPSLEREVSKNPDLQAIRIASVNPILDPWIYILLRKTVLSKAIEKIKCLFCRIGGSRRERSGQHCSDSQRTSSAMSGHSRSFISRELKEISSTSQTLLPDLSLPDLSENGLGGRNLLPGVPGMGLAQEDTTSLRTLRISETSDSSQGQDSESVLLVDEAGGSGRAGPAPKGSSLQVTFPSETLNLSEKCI
Sequence of Somatostatin receptor type 4 (Mus musculus) (P49660 as listed by the source): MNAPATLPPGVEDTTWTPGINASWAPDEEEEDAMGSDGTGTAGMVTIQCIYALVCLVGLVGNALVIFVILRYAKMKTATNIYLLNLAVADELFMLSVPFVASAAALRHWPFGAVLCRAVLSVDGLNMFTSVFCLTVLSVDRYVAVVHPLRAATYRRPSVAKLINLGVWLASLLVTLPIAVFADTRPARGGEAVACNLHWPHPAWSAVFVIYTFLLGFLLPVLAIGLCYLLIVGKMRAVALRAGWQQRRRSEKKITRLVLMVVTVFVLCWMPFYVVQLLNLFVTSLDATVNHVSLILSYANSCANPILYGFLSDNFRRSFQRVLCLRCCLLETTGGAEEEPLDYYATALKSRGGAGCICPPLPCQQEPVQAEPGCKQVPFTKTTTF
Sequence of B2 bradykinin receptor (Homo sapiens) (P30411 whole entry): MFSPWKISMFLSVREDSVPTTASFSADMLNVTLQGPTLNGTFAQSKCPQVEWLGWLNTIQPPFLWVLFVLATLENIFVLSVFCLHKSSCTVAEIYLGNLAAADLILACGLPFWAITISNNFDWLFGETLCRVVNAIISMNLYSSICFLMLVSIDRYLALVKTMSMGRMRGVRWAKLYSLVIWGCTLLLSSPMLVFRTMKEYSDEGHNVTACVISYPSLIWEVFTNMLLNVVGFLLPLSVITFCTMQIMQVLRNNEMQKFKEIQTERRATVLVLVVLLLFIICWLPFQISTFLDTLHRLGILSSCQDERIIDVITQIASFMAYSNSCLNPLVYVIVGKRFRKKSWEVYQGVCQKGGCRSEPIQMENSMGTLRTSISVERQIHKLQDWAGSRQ
Sequence of Beta-1 adrenergic receptor (Homo sapiens) (P08588 whole entry, looked up): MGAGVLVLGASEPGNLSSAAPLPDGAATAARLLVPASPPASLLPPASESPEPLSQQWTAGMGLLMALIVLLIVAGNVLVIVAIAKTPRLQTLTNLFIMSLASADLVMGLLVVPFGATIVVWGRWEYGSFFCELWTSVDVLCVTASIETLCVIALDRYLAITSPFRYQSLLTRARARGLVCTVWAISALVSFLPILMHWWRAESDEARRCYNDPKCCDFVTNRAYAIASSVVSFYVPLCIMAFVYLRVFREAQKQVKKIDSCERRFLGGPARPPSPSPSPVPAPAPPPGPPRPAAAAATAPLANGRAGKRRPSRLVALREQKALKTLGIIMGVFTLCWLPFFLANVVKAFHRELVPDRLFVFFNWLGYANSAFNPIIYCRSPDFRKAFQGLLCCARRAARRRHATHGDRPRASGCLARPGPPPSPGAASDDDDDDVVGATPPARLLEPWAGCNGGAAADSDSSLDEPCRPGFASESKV
Sequence of 5-hydroxytryptamine receptor 1A (Homo sapiens) (P08908 whole entry): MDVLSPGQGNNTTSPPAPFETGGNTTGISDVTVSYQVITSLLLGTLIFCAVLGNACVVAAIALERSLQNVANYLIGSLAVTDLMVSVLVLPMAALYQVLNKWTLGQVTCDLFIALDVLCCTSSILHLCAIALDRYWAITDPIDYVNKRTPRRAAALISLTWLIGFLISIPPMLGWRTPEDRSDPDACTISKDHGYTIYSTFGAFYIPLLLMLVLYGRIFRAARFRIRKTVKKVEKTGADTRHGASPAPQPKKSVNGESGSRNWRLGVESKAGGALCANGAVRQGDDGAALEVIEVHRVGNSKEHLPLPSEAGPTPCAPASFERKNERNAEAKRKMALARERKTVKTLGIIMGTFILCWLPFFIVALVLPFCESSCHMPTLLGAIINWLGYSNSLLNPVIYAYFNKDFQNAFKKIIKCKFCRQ
Sequence of Sodium-dependent dopamine transporter (Homo sapiens) (Q01959 whole entry): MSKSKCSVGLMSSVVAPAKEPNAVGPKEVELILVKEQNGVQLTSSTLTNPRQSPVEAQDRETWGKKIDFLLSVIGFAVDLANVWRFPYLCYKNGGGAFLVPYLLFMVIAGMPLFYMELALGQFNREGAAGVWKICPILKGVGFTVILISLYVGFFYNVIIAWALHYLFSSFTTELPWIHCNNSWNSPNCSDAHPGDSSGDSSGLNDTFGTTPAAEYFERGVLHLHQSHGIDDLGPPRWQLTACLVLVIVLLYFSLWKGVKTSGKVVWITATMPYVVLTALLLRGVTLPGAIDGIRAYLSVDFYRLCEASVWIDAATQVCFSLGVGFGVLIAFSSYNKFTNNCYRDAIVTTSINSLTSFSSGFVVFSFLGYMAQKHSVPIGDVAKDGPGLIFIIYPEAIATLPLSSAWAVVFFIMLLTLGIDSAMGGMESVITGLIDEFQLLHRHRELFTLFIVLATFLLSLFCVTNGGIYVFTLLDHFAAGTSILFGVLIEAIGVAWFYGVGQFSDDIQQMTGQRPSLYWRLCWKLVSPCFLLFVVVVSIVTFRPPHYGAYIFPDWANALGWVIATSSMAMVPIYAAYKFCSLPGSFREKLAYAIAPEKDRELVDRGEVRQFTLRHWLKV
Sequence of Endothelin-1 receptor (Homo sapiens) (P25101 whole entry): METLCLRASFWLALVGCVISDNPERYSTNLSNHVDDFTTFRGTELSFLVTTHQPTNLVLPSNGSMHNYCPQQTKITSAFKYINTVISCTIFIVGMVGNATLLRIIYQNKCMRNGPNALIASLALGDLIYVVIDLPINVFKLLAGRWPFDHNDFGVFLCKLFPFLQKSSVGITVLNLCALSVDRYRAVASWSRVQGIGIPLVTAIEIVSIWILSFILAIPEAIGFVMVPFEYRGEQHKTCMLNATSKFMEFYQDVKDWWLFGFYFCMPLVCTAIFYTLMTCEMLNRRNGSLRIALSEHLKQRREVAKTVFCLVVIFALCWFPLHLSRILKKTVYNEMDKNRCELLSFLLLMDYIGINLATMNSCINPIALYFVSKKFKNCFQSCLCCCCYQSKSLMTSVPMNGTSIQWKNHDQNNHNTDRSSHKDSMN

`Cl.Cl.O=c1c2cc(Cl)ccc2oc2ccc(CN3CCN(CCOCCO)CC3)cc12` showed an inhibition [1] of 47%, an Activity (Mus musculus) of 50.1% and an AUC(0-t) at 8 h [2] of 5490 ng·h/mL. It also gave a half-life [3] of 2.89 h, a Cmax [4] of 1920 ng/mL and an MRT [5] of 2.58 h. For the same compound, the Tmax [6] was 0.5 h, the Activity_index [7] was 0.64 and the Activity_index [8] was 0.93. It also gave an Activity_index [9] of 1.28, an inhibition [10] of 42.9% and an inhibition [11] of 2.3%. It also gave an inhibition (Rattus norvegicus) of 9.4%, an inhibition [12] of -7% and an inhibition [13] of -0.1%. For the same compound, the inhibition [14] was 27.4%, the inhibition [15] was 4.9% and the inhibition [16] was 1.4%. The inhibition [17] was -4%, the inhibition [18] was 11.1% and the inhibition [19] was 52.3%. The inhibition [20] was -3.5%, the inhibition [21] was 27.1% and the inhibition [22] was 12.2%. It also gave an inhibition [23] of 10.9%, an inhibition [24] of -2.6% and an inhibition [25] of 76.8%. The inhibition [26] was 2.5%, the inhibition [27] was -2.9% and the inhibition [28] was 8.5%. The inhibition [29] was 28.7%, the Ki [30] was 2900 nM and the Ki [31] was 1340 nM.
